Data from paper PMC8749431 (mBio, 2022).

Experiments:
[1] = tested on: pseudotyped VSVs harboring SARS-CoV S (SARS-Spp); test: microbe, parasite or virus in culture; type: cell-based; details: for EC50: Severe acute respiratory syndrome coronavirus
[2] = tested on: pseudotyped VSVs harboring MERS-CoV S (MERS-Spp); type: cell-based

| SMILES | EC50 [1] | EC50 ([1]; Huh-7) | EC50 ([1]; MA104) | inhibition of MERS-Spp entry [2] | inhibition of SARS-Spp entry [1] |
| --- | --- | --- | --- | --- | --- |
| CCN1CCN(C(c2ccc(Cl)cc2)c2ccc(Cl)cc2)CC1 [Dichlorcyclizine, dichlorcyclizine] | 5.76 µM | 0.87 µM | 9.92 µM |  |  |
| Cc1cc(-c2nc(CN3CCC(C(=O)NCCCN4C[C@H](C)C[C@H](C)C4)CC3)co2)ccc1F [Fluoxazolevir, fluoxazolevir] | 1.46 µM | 1.75 µM | 6.49 µM |  |  |
| CN1CCN([C@@H](c2ccccc2)c2ccc(Cl)cc2)CC1 [(S)-CCZ, (S)-chlorcyclizine] | 4.59 µM | 3.21 µM | 6.91 µM |  |  |
| CCN(CC)CCCC(C)Nc1ccnc2cc(Cl)ccc12 (stereo not shown) [Chloroquine, chloroquine] |  |  |  | reduced | inhibited |
| CCOC(=O)[C@H]1O[C@@H]1C(=O)N[C@@H](CC(C)C)C(=O)NCCC(C)C [E-64d] |  |  |  | reduced | inhibited |
